In patent publication US12030824B2 (priority 2016, dated 2024):
“Also recorded” adds a separate entry of the source.

Legend:
plant growth = experiment: Applicant's observation of plant growth induction by 1-octen-3-ol; assay type: in vivo; details: very low concentrations
[1] = tested on: cabbage aphid Brevicoryne brassicae; experiment: Control of aphids on cabbage, single spray; assay type: in vivo; details: white flies on tomato and cabbage aphids on cabbage
White flies = experiment: Control of white flies on greenhouse tomatoes with OPB+microbial strains; assay type: in vivo, Bremia spp.; details: single spray
[2] = tested on: root knot nematode, Meloidgyne javanica; experiment: Split-root greenhouse trial on tomato with root knot nematode (Nemlab); assay type: in vivo; details: for overall effectiveness in nematode control: split-root greenhouse trial; for Number of Eggs/Root System, Pot 1—nem. alone (of split root system) / Numbers of female nematodes/root, Pot 1—nem. alone (of split root system) / Galling Index, Pot 1—nem. alone (of split root system) / Number of Eggs/Root System, Pot 2—agent + nematode (of split root system) / Numbers of female nematodes/root, Pot 2—agent + nematode (of split root system) / Galling Index, Pot 2—agent + nematode (of split root system): tomato split root; for Number of Eggs/Root System, Pot 1—nem. alone (of split root system) / Numbers of female nematodes/root, Pot 1—nem. alone (of split root system): root half with M. javanica only; for Galling Index, Pot 1—nem. alone (of split root system): root half with M. javanica only (systemic), scale 0 no galls to 5 100% of roots with galls; for Number of Eggs/Root System, Pot 2—agent + nematode (of split root system) / Numbers of female nematodes/root, Pot 2—agent + nematode (of split root system) / Galling Index, Pot 2—agent + nematode (of split root system): root half with M. javanica plus agent; for Galling Index, Pot 2—agent + nematode (of split root system): scale 0 no galls to 5 100%
Method: Comprehensive evaluation of the strains in greenhouse trials. […] It is difficult to obtain statistically valid results directly on nematode control from natural infestations since the levels of nematodes differ widely on a microsite level. Therefore, controlled greenhouse tests were conducted with Nemlab, a company in South Africa who specializes in nematode control testing. This trial was designed to consider mechanisms as well as direct contact control. As noted earlier, induction of systemic resistance was considered highly desirable, and would be expected given the generalized mechanisms of action described in Example 3, FIG. 8. To assess this character, tomato plants were grown for 6 weeks and then the roots were split into two, and each half root was placed into a separate pot with a single shoot. Except for water controls, 500-1000 eggs of the root knot nematode, Meloidgyne javanica were placed into each root system, but only one side, the various treatments were placed the biocontrol agents at 10^8 cfu/g soil. So, one root system of each plant contained nematodes only while the other contained nematodes plus the treatments. The treatments are shown below; there were six replicates per treatment. […] The experiment was designed to evaluate the ability of each strain to directly control (pot 2) and to control at-a-distance, the nematodes. […] There were a number of evaluations made of the plants at the end of the experiment, and the most important are shown below in Table 4 ([…] Index). Root galling is an index of the formation of 'knots' on roots that give root knot nematode its name and is an index of the root damage. The galls are the areas where the nematode is infesting the root and laying its eggs. The scale=0, no galls, 1, visible galling, 2, 25% of roots with galls, 3, 50% of roots with galls, 4, 75%, and 5, 100%.

maize = experiment: ABM trials and field testing of commercial products and strains on corn; assay type: in vivo
wheat = experiment: Greenhouse wheat seedlings, foliar spray; assay type: in vivo; details: foliar spray vs water only; FIG. 3
Text: Trichoderma strain K5 increases growth in greenhouse grown wheat when applied as a foliar treatment. […] Control plants were sprayed with water only.

corn = experiment: Corn trials in the greenhouse, seed treatment; assay type: in vivo; details: FIG. 2
Text: Corn trials in the greenhouse. […] The growth differences are clearly evident.

soybean = experiment: Greenhouse soybean in sand tubes, seed treatment; assay type: in vivo; details: stem length, Spad, root weight, root volume; FIG. 4; significant at alpha=0.05 or 0.01
Method: Trichoderma strain K5 increases growth in soybean in the greenhouse when applied as a seed treatment. Soybean seeds were treated with either T. virens NRRL B-5025 strain or left untreated with no other microbial or chemical treatments being applied. These were planted into sand tubes and growth data was collected as the seeds emerged and the seedlings grew. […] All of the differences shown in FIG. 4 are significant at alpha=0.05 or 0.01.

[3] = tested on: plant parasitic nematodes; experiment: Field trials with sunflowers in South Africa, root galling; assay type: in vivo; details: sunflower, naturally infested field, FIG. 12
Method: Field trials with sunflowers in the field in South Africa. Trials were conducted in the Republic of South Africa. Sunflower seeds were treated with various microorganisms and planted into soil infested with plant parasitic nematodes. After the plants were mature, roots were harvested and rated for root galling caused by the nematodes. The variability was quite large in this naturally infested field.

nematodes = experiment: Field trial in Iowa in a field heavily infested with nematodes: yields; details: Iowa nematode-infested field
corn (Zea mays) = experiment: Corn field trial ABM14 (1st field trial), seed treatments; assay type: in vivo; details: both ABM14 and ABM15 studies

`C=CC(O)CCCCC` (stereo not shown) [1-octen-3-ol] was tested, and the “induction of plant growth” value (plant growth) was “potent inducer of enhanced plant growth”.

With “Bacillus amyloliquifaciens [Bacillus AS2]” the “conclusion from the combined two experiments” value (“conclusion” for short) [1] was “highly effective”, the “duration of white fly control” value (White flies) was “effects continued at least three weeks” and the “overall effectiveness in nematode control” value [2] was “nearly as good an effect”. For the same compound, the “Number of Eggs/Root System, Pot 1—nem. alone (of split root system)” value [2] was 2481, the “Numbers of female nematodes/root, Pot 1—nem. alone (of split root system)” value [2] was 14.67 and the “Galling Index, Pot 1—nem. alone (of split root system)” value (shortened to “Galling Index, Pot 1—nem. alone”) [2] was 2.3. The “Number of Eggs/Root System, Pot 2—agent + nematode (of split root system)” value [2] was 970, the “Numbers of female nematodes/root, Pot 2—agent + nematode (of split root system)” value [2] was 8.16 and the “Galling Index, Pot 2—agent + nematode (of split root system)” value (shortened to “Galling Index, Pot 2—agent + nematode”) [2] was 2.0.

For “T. virens strain ATCC 20906 [Trichoderma K1]”, the “conclusion” value [1] was “highly effective”, the “impact on corn in field testing” value (maize) was “negative impact on corn” and the “duration of white fly control” value (White flies) was “effects continued at least three weeks”. The “Number of Eggs/Root System, Pot 1—nem. alone (of split root system)” value [2] was 45631, the “Numbers of female nematodes/root, Pot 1—nem. alone (of split root system)” value [2] was 25.17 and the “Galling Index, Pot 1—nem. alone” value [2] was 3.33. For the same compound, the “Number of Eggs/Root System, Pot 2—agent + nematode (of split root system)” value [2] was 48765, the “Numbers of female nematodes/root, Pot 2—agent + nematode (of split root system)” value [2] was 35.7 and the “Galling Index, Pot 2—agent + nematode” value [2] was 3.17.

In the case of “Trichoderma gamsii (NRRL B-50520) [Trichoderma K5]”, the “conclusion” value [1] is reported as “highly effective”, the “growth of wheat seedlings” value (wheat) is reported as “clearly larger and more vigorous; also recorded: significant growth increase” and the “growth of corn plants” value (corn) is reported as “improved growth and development”. The “soybean seedling growth” value (soybean) was “significantly increase soybean seedling growth”, the “root galling index” value [3] was “lowest numerical galling index of the biological treatments” and the “duration of white fly control” value (White flies) was “effects continued at least three weeks”. The “overall effectiveness in nematode control” value [2] was “most effective treatment”, the “Number of Eggs/Root System, Pot 1—nem. alone (of split root system)” value [2] was 1298 and the “Numbers of female nematodes/root, Pot 1—nem. alone (of split root system)” value [2] was 4.0. The “Galling Index, Pot 1—nem. alone” value [2] was 1.3, the “Number of Eggs/Root System, Pot 2—agent + nematode (of split root system)” value [2] was 493 and the “Numbers of female nematodes/root, Pot 2—agent + nematode (of split root system)” value [2] was 8.5. The “Galling Index, Pot 2—agent + nematode” value [2] was 2.17, the “yield performance” value (nematodes) was “excellent performance” and the “grain yields” value (corn (Zea mays)) was “largest grain yields”.
